From ChEMBL document CHEMBL4118074, “Design, synthesis and structure-activity relationship studies of a novel focused library of 2,3,4-substituted oxazolidines with antiproliferative activity against cancer cell lines” (Eur J Med Chem, 2017)
pIC50: −log10 of the molar value.

Assays:
MDA-MB-231 = experiment: Antiproliferative activity against human MDA-MB-231 cells after 48 hrs by MTT assay; assay type: functional, cell-based; details: MDA-MB-231, 48 h
HCT-116 = experiment: Antiproliferative activity against human HCT116 cells after 48 hrs by MTT assay; assay type: functional, cell-based; details: HCT-116, 48 h
HL-60 = experiment: Antiproliferative activity against human HL60 cells after 48 hrs by MTT assay; assay type: functional, cell-based; details: HL-60, 48 h
Vero = experiment: Cytotoxicity against African green monkey Vero cells after 48 hrs by MTT assay; assay type: cell-based; details: Chlorocebus sabaeus
MCF7 = experiment: Antiproliferative activity against human MCF7 cells after 48 hrs by MTT assay; assay type: functional, cell-based; details: MCF7, 48 h
Jurkat = experiment: Antiproliferative activity against human Jurkat T cells after 48 hrs by MTT assay; assay type: functional, cell-based

Row | SMILES | pIC50 (MDA-MB-231) | pIC50 (HCT-116) | pIC50 (HL-60) | pIC50 (Vero) | pIC50 (MCF7) | pIC50 (Jurkat)
1 | CC(C)(C)OC(=O)N[C@H](CO)COc1ccc([N+](=O)[O-])cc1 | < 4.30 | < 4.30 | < 4.30 | < 4.00 | < 4.30 | –
2 | CC(C)(C)C(=O)N1[C@@H](COc2ccc([N+](=O)[O-])cc2)COC1(C)C | < 4.30 | < 4.30 | < 4.30 | < 4.00 | < 4.30 | < 4.30
3 | CC(C)(C)CC(=O)N1[C@@H](COc2ccc([N+](=O)[O-])cc2)COC1(C)C | < 4.30 | < 4.30 | < 4.30 | < 4.00 | < 4.30 | < 4.30
4 | CN1CCN(C(=O)c2ccc(OC[C@H]3COC(C)(C)N3C(=O)OC(C)(C)C)cc2)CC1 | < 4.30 | < 4.30 | < 4.30 | – | < 4.30 | < 4.30
